Legend:
[1] = biological target: Tyrosine-protein kinase ABL1 (Homo sapiens) (UniProt P00519); experiment: Inhibition of ABL at 10 uM
[2] = biological target: Protein-tyrosine kinase 6 (Homo sapiens) (UniProt Q13882); experiment: Inhibition of BRK at 10 uM
[3] = biological target: Tyrosine-protein kinase CSK (Homo sapiens) (UniProt P41240); experiment: Inhibition of CSK at 10 uM
[4] = biological target: Epithelial discoidin domain-containing receptor 1 (Homo sapiens) (UniProt Q08345); experiment: Inhibition of DDR1 at 10 uM
EML4-ALK (Homo sapiens) = EML4-ALK (Homo sapiens) (UniProt Q9UM73+Q9HC35); experiment: Inhibition of EML4-ALK at 10 uM; assay type: protein assay
[5] = biological target: Ephrin type-A receptor 4 (Homo sapiens) (UniProt P54764); experiment: Inhibition of EPHA4 at 10 uM
[6] = biological target: Ephrin type-A receptor 6 (Homo sapiens) (UniProt Q9UF33); experiment: Inhibition of EPHA6 at 10 uM
[7] = biological target: Ephrin type-A receptor 8 (Homo sapiens) (UniProt P29322); experiment: Inhibition of EPHA8 at 10 uM
[8] = biological target: Ephrin type-B receptor 3 (Homo sapiens) (UniProt P54753); experiment: Inhibition of EPHB3 at 10 uM
[9] = biological target: Tyrosine-protein kinase Fer (Homo sapiens) (UniProt P16591); experiment: Inhibition of FER at 10 uM
[10] = system: Fibroblast growth factor receptor 3 (Homo sapiens), P22607 [K650M]; experiment: Inhibition of FGFR3 K650M mutant at 10 uM
Fibroblast growth factor receptor 3 (Homo sapiens), P22607 [K650M], sequence (P22607 whole entry K650M): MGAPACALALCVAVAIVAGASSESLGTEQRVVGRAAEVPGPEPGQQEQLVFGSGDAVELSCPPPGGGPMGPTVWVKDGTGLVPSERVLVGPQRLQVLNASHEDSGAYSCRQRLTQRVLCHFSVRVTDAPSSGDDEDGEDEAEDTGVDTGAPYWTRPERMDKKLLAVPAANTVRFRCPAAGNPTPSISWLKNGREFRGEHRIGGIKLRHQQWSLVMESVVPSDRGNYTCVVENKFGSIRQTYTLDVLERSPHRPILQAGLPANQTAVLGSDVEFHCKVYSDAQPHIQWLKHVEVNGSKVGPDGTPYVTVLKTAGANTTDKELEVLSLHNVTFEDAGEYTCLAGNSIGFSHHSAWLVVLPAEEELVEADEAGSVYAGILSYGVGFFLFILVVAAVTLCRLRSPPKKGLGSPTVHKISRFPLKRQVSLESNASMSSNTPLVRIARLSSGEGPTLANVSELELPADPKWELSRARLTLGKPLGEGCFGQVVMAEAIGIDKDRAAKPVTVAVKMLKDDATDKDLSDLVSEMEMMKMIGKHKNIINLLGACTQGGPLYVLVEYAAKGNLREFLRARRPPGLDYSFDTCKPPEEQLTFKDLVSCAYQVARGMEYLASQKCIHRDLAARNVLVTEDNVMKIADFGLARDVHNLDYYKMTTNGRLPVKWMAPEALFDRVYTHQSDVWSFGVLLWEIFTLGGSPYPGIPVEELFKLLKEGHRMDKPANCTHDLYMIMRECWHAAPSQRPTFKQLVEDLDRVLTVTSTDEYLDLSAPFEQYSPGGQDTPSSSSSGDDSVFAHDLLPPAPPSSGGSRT

[11] = biological target: Tyrosine-protein kinase Fgr (Homo sapiens) (UniProt P09769); experiment: Inhibition of FGR at 10 uM
[12] = biological target: Receptor tyrosine-protein kinase erbB-4 (Homo sapiens) (UniProt Q15303); experiment: Inhibition of HER4 at 10 uM
[13] = biological target: NPM/ALK (Nucleophosmin/ALK tyrosine kinase receptor) (Homo sapiens) (UniProt Q9UM73+P06748); experiment: Inhibition of NPM1-ALK at 10 uM; assay type: protein-complex assay
[14] = system: Proto-oncogene tyrosine-protein kinase receptor Ret (Homo sapiens), P07949 [M918T]; experiment: Inhibition of RET M918T mutant at 10 uM
[15] = biological target: Proto-oncogene tyrosine-protein kinase Src (Homo sapiens) (UniProt P12931); experiment: Inhibition of SRC at 10 uM
[16] = biological target: Tyrosine-protein kinase SYK (Homo sapiens) (UniProt P43405); experiment: Inhibition of SYK at 10 uM
[17] = biological target: Tyrosine-protein kinase Tec (Homo sapiens) (UniProt P42680); experiment: Inhibition of TEC at 10 uM
[18] = biological target: Non-receptor tyrosine-protein kinase TNK1 (Homo sapiens) (UniProt Q13470); experiment: Inhibition of TNK1 at 10 uM
Non-receptor tyrosine-protein kinase TNK1 (Homo sapiens), sequence (Q13470 whole entry): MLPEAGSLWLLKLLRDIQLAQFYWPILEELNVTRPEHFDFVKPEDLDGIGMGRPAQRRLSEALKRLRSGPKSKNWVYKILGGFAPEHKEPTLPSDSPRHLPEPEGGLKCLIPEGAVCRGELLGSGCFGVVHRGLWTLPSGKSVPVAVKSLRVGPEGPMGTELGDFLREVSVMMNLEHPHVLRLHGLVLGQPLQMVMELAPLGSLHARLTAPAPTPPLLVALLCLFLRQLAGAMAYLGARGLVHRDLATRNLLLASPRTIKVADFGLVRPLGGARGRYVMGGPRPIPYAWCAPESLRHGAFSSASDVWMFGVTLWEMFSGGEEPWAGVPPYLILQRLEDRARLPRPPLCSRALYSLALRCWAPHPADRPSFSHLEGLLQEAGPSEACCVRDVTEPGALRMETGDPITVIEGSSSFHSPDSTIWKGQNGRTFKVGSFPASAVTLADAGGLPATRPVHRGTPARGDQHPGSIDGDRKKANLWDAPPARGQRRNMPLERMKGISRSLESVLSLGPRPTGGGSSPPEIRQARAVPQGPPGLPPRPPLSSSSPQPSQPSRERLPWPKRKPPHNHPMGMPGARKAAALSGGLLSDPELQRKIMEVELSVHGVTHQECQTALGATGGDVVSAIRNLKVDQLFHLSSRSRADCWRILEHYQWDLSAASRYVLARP

[19] = biological target: Tyrosine-protein kinase TXK (Homo sapiens) (UniProt P42681); experiment: Inhibition of TXK at 10 uM
[20] = biological target: Non-receptor tyrosine-protein kinase TYK2 (Homo sapiens) (UniProt P29597); experiment: Inhibition of TYK2 at 10 uM
[21] = biological target: AMP-activated protein kinase, AMPK (Homo sapiens) (UniProt P54646+O43741+P54619+Q9UGJ0+Q9Y478+Q13131+Q9UGI9); experiment: Inhibition of AMPKalpha2/beta1/gamma1 at 10 uM; assay type: protein-complex assay
[22] = system: Serine/threonine-protein kinase B-raf (Homo sapiens), P15056 [V600E]; experiment: Inhibition of BRAF V600E mutant at 10 uM
Serine/threonine-protein kinase B-raf (Homo sapiens), P15056 [V600E], sequence (P15056 whole entry V600E): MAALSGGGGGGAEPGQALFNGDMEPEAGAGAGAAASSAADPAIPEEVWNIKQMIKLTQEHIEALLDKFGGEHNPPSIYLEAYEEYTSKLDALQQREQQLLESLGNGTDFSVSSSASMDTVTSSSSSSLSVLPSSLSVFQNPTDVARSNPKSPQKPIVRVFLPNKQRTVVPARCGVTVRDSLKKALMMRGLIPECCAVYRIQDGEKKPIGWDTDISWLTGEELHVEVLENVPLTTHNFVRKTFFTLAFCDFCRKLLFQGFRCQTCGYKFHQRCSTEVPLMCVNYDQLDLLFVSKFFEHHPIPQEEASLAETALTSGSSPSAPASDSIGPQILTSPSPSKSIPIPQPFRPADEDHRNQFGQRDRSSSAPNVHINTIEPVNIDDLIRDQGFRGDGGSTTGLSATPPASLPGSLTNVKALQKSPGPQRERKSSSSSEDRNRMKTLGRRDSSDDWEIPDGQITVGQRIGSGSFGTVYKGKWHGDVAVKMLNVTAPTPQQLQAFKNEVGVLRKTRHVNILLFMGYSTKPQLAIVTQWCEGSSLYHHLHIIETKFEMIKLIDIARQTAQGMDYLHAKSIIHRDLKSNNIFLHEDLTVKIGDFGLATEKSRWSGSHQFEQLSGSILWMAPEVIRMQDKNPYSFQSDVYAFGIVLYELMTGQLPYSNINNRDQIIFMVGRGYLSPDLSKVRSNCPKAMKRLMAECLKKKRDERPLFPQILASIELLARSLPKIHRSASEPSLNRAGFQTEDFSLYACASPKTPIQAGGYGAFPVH

[23] = biological target: Serine/threonine-protein kinase BRSK2 (Homo sapiens) (UniProt Q8IWQ3); experiment: Inhibition of BRSK2 at 10 uM
Serine/threonine-protein kinase BRSK2 (Homo sapiens), sequence (Q8IWQ3 whole entry): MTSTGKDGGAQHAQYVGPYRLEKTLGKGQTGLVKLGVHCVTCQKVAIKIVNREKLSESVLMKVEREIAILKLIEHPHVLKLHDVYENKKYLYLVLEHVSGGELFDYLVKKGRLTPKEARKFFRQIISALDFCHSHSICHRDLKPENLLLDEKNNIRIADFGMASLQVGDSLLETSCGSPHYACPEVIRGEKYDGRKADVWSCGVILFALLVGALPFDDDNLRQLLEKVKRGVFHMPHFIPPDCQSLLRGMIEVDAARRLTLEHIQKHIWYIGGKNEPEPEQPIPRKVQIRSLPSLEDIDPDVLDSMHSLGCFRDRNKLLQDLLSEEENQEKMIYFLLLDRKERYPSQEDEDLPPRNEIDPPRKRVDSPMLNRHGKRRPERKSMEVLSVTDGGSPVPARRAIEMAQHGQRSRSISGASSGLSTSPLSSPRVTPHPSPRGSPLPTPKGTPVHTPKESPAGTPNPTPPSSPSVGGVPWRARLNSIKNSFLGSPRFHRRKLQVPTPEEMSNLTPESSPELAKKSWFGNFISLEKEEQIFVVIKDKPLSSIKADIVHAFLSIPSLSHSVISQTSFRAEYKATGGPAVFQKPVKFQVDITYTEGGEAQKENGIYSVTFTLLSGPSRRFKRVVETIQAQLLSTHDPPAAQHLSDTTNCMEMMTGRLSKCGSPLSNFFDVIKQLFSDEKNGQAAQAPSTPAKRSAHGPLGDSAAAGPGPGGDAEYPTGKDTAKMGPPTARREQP

[24] = biological target: Calcium/calmodulin-dependent protein kinase type II subunit alpha (Homo sapiens) (UniProt Q9UQM7); experiment: Inhibition of CaMK2a at 10 uM
[25] = biological target: Cyclin-dependent kinase 1/cyclin B1 (Homo sapiens) (UniProt P06493+P14635); experiment: Inhibition of CDC2-CycB1 at 10 uM; assay type: protein-complex assay
Cyclin-dependent kinase 1/cyclin B1 (Homo sapiens), sequence (P06493 whole entry, looked up): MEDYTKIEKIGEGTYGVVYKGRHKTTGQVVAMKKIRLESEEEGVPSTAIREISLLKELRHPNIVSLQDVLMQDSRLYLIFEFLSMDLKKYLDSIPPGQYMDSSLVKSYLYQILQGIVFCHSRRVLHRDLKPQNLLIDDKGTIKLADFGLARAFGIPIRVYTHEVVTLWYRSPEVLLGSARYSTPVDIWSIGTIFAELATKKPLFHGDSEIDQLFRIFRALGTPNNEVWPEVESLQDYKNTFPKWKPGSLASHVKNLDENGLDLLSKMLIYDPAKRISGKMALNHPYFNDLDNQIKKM
Cyclin-dependent kinase 1/cyclin B1 (Homo sapiens), sequence (P14635 whole entry, looked up): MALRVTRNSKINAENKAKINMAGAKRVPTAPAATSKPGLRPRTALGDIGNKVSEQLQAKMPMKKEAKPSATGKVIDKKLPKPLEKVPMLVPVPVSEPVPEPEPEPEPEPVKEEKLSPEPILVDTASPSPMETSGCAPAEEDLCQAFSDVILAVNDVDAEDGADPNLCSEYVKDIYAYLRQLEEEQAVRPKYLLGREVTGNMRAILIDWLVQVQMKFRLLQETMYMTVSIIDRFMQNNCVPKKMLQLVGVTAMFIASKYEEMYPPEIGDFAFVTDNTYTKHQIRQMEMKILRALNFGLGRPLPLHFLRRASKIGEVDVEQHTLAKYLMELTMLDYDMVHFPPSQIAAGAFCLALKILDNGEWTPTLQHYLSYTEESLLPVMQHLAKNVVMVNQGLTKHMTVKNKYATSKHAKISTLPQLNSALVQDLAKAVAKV

[26] = biological target: Cyclin-dependent kinase 2/cyclin A (Homo sapiens) (UniProt P24941+P20248+P78396); experiment: Inhibition of CDK2-Cyclin A2 at 10 uM; assay type: protein-complex assay
[27] = biological target: Serine/threonine-protein kinase Chk2 (Homo sapiens) (UniProt O96017); experiment: Inhibition of CHK2 at 10 uM
[28] = biological target: Casein kinase I isoform epsilon (Homo sapiens) (UniProt P49674); experiment: Inhibition of CK1e at 10 uM
[29] = biological target: Mitogen-activated protein kinase kinase kinase 8 (Homo sapiens) (UniProt P41279); experiment: Inhibition of COT at 10 uM
[30] = biological target: Eukaryotic elongation factor 2 kinase (Homo sapiens) (UniProt O00418); experiment: Inhibition of EEF2K at 10 uM
[31] = biological target: Mitogen-activated protein kinase 1 (Homo sapiens) (UniProt P28482); experiment: Inhibition of Erk2 at 10 uM
[32] = biological target: Glycogen synthase kinase-3 beta (Homo sapiens) (UniProt P49841); experiment: Inhibition of GSK3b at 10 uM
[33] = biological target: Serine/threonine-protein kinase 10 (Homo sapiens) (UniProt O94804); experiment: Inhibition of LOK at 10 uM
[34] = biological target: Mitogen-activated protein kinase kinase kinase 4 (Homo sapiens) (UniProt Q9Y6R4); experiment: Inhibition of MAP3K4 at 10 uM
[35] = biological target: MAP kinase-interacting serine/threonine-protein kinase 1 (Homo sapiens) (UniProt Q9BUB5); experiment: Inhibition of MNK1 at 10 uM
[36] = biological target: Serine/threonine-protein kinase 24 (Homo sapiens) (UniProt Q9Y6E0); experiment: Inhibition of MST3 at 10 uM
Serine/threonine-protein kinase 24 (Homo sapiens), sequence (Q9Y6E0 whole entry, looked up): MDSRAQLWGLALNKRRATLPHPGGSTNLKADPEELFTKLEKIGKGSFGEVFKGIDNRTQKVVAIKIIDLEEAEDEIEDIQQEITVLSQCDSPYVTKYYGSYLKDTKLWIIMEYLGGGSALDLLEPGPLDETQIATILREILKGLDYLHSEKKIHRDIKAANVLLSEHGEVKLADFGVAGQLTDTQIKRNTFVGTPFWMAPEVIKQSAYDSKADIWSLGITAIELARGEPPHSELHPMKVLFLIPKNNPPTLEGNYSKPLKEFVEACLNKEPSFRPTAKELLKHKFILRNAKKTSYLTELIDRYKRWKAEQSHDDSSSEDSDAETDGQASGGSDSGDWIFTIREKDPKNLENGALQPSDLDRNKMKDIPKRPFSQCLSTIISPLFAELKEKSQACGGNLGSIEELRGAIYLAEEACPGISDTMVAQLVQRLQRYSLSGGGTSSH

[37] = biological target: Mitogen-activated protein kinase 14 (Homo sapiens) (UniProt Q16539); experiment: Inhibition of p38alpha at 10 uM
Mitogen-activated protein kinase 14 (Homo sapiens), sequence (Q16539 whole entry): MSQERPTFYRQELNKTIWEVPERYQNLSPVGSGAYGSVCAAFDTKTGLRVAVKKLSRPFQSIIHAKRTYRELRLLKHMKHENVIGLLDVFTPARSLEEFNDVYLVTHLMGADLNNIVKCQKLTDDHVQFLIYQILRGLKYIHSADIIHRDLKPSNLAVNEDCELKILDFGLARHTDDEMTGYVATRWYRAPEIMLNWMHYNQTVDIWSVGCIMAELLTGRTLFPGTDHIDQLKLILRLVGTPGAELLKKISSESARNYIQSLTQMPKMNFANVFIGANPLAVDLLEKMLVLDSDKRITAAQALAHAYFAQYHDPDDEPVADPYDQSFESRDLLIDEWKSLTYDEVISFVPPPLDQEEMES

[38] = biological target: Serine/threonine-protein kinase PAK 6 (Homo sapiens) (UniProt Q9NQU5); experiment: Inhibition of PAK6 at 10 uM
[39] = biological target: Protein kinase C theta type (Homo sapiens) (UniProt Q04759); experiment: Inhibition of PKCq at 10 uM
[40] = biological target: Ribosomal protein S6 kinase alpha-6 (Homo sapiens) (UniProt Q9UK32); experiment: Inhibition of RSK4 N-terminal at 10 uM
[41] = biological target: Serine/threonine-protein kinase Sgk1 (Homo sapiens) (UniProt O00141); experiment: Inhibition of SGK at 10 uM
[42] = biological target: PI3-kinase p110-alpha/p85-alpha (Homo sapiens) (UniProt P27986+P42336); experiment: Inhibition of PIK3CA/PIK3R1 at 10 uM; assay type: protein-complex assay
[43] = biological target: Dual specificity tyrosine-phosphorylation-regulated kinase 1A (Homo sapiens) (UniProt Q13627); conditions: 10 uM
[44] = biological target: 3-phosphoinositide-dependent protein kinase 1 (Homo sapiens) (UniProt O15530); experiment: Inhibition of PDK1 at 10 uM

Protein-tyrosine kinase 6 (Homo sapiens), sequence (Q13882 whole entry, looked up): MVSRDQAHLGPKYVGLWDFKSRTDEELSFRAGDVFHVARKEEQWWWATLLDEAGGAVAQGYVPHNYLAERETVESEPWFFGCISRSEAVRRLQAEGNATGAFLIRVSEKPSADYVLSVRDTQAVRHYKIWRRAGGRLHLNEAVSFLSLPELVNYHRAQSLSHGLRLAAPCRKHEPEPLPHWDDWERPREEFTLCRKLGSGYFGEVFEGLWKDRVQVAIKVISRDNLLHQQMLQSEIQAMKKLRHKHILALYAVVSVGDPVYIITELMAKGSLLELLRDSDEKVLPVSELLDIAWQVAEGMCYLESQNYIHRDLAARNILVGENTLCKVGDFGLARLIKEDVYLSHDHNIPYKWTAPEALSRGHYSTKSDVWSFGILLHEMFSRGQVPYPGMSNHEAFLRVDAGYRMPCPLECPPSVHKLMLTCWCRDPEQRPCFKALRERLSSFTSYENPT

COc1ccc2c3ccnc(C(F)(F)F)c3n(CCCCN)c2c1
inhibition [1]: 3%
inhibition [2]: 1%
inhibition [3]: 5%
inhibition [4]: 8%
inhibition (EML4-ALK (Homo sapiens)): 12%
inhibition [5]: 0%
inhibition [6]: 0%
inhibition [7]: 0%
inhibition [8]: 0%
inhibition [9]: 8%
inhibition [10]: 0%
inhibition [11]: 11%
inhibition [12]: 25%
inhibition [13]: 4%
inhibition [14]: 9%
inhibition [15]: 17%
inhibition [16]: 0%
inhibition [17]: 2%
inhibition [18]: 10%
inhibition [19]: 8%
inhibition [20]: 15%
inhibition [21]: 16%
inhibition [22]: 8%
inhibition [23]: 30%
inhibition [24]: 53%
inhibition [25]: 55%
inhibition [26]: 65%
inhibition [27]: 27%
inhibition [28]: 41%
inhibition [29]: 7%
inhibition [30]: 0%
inhibition [31]: 7%
inhibition [32]: 27%
inhibition [33]: 20%
inhibition [34]: 8%
inhibition [35]: 37%
inhibition [36]: 9%
inhibition [37]: 1%
inhibition [38]: 13%
inhibition [39]: 42%
inhibition [40]: 23%
inhibition [41]: 34%
inhibition [42]: 13%
inhibition [43]: 100%
inhibition [44]: 0%
